Here are results for three compounds from US20210244704A1, “Cabazitaxel in mCRPC Patients Previously Treated with Docetaxel and Who Failed a Prior androgen signaling targeted inhibitor Agent” (SANOFI MATURE IP, priority 2019, published 2021).

Data set [1] relates to patients with mCRPC who progressed during or after docetaxel. Conditions: every 3 weeks with prednisone 10 mg daily; cabazitaxel 25 mg/m^2, mitoxantrone 12 mg/m^2; cited from earlier work.
The test system of data set [2] is mCRPC patients. The conditions noted are these: at 3 months; cited from earlier work.
Data set [3] has as its system mCRPC patients, safety population. The experiment in a line: Same clinical study: safety (adverse events, laboratory abnormalities, dose reductions). It is filed as in vivo, human. The conditions noted are these: human, in vivo. As for the experimental part:
For patients in Arm A, cabazitaxel 25 mg/m^2 was administered intravenously over 1 hour every 3 weeks along with oral prednisone 10 mg given daily. Primary prophylactic granulocyte-colony stimulating factor (G-CSF) was required at each cycle for all patients in the cabazitaxel arm
For patients in Arm B, abiraterone acetate was administered orally at 1000 mg once daily along with oral prednisone 5 mg given twice daily or enzalutamide was administered orally at 160 mg once daily continuously. Abiraterone acetate was administered to patients who had received enzalutamide prior to study entry. Enzalutamide was administered to patients who received prior abiraterone acetate.
Cabazitaxel 25 mg/m^2, was administered intravenously over 1 hour every 3 weeks with oral prednisone 10 mg daily. Premedication included an antihistamine, glucocorticoid (dexamethasone 8 mg or equivalent), and histamine 2 receptor antagonist. Antiemetic prophylaxis was administered at physician's discretion. Primary prophylactic granulocyte-colony stimulating factor was required during each cycle of cabazitaxel. Patients received either abiraterone acetate (1000 mg orally once daily and oral prednisone 5 mg twice daily) or enzalutamide (160 mg orally once daily) continuously. A treatment cycle was 3 weeks in both arms. Abiraterone acetate was given to patients who previously received enzalutamide before study entry. Enzalutamide was given to patients who previously received abiraterone acetate.
Up to a maximum of 2 dose reductions was allowed per patient when necessary due to toxicity and according to the table below:
Efficacy analysis used all randomized patients. Stratified log-rank tests were used to analyze time-to-event data. The primary analysis compared radiographic progression-free survival between the two treatment groups using a stratified log-rank test. Survival curves were generated using Kaplan-Meier estimates. Hazard ratios and associated 95% confidence intervals [CI] were estimated using a stratified Cox proportional hazards model. Stratified Cochran-Mantel-Haenszel chi-square tests were used to analyze categorical data. Descriptive statistics were used to summarize patient characteristics. The safety population (randomized patients who received at least one dose of study treatment) was used for all safety analyses.

The subject of data set [4] is mCRPC patients. The conditions noted are these: 3 months; cited from earlier work.

For `O=C1c2c(O)ccc(O)c2C(=O)c2c(NCCNCCO)ccc(NCCNCCO)c21` [mitoxantrone], in data set [1], the “Median overall survival, TROPIC trial” value was 12.7 months. With `CNC(=O)c1ccc(N2C(=S)N(c3ccc(C#N)c(C(F)(F)F)c3)C(=O)C2(C)C)cc1F` [enzalutamide, 4-{3-[4-cyano-3-(trifluoromethyl)phenyl]-5,5-dimethyl-4-oxo-2-sulfanylideneimidazolidin-1-yl}-2-fluoro-N-methylbenzamide], the “Patients with imaging-based progression” value in data set [2] was “about 25%”. Regarding `CC(=O)O[C@H]1CC[C@@]2(C)C(=CC[C@@H]3[C@@H]2CC[C@]2(C)C(c4cccnc4)=CC[C@@H]32)C1` [abiraterone acetate, (3β)-17-(3-pyridinyl) androsta-5,16-dien-3-yl acetate], in data set [3], the “At least one dose reduction required” value is 17 patients. Besides, the “Patients with primary resistance, imaging-based progression at the first visit” value in data set [4] was “about 30%”.
